Here are results for two compounds from patent US20100160443A1, “COMPOUNDS USEFUL FOR TREATING NEUROLOGICAL DISORDERS” (Yissum Research Development Company of The Hebrew …, priority 2003, published 2010).

Data set [1] can be described thus: Plasma drug concentration and pharmacokinetics after i.p. administration to SNL operated rats. The class given is in vivo, rat. The following applies: for minimal plasma concentration associated with the antiallodynic effect: SNL rats; for CL/F / Cmax / MRT / Tmax / half-life: rat, ip. The protocol:
0.5% MC, and […] of blood were collected from the amputated tail tip at each of three time points after injection. Blood was withdrawn for group 1 at 15, 60 and 180 min after dosing; for group 2 at 30, 90 and 240 min after dosing and for group 3 at 45, 120 and 360 min after dosing. Plasma was immediately separated by centrifugation at 3000 g for 15 min and stored at −20° C. until analyzed.
Plasma levels of VPA and DID were determined by gas chromatography (GC). An HP5890 series II GC equipped with FID detector, HP7673 autosampler, for DID HP-5 capillary column (0.25 μm×15 m×0.25 mm) was used. The temperature program was as follows: injector temperature 250° C.; initial temperature, 60° C. for 3 min; gradient of 15° C. min-1 until 180° C.; hold 5 min. For each drug, plasma levels obtained from 3 rats at each time point were averaged. 25 μl of internal standard solution (50 mg L^−1 of VPD for the DID assay) and 200 μl of 0.1M NaOH were added to 50 μl of plasma. The mixture was vortexed, and 1 ml of chloroform was added. The phases were separated, and the chloroform was evaporated. The dry residue was redissolved in 50 μl of chloroform, and 1 μl was injected into the gas chromatograph. Calibration curves were prepared separately by spiking naïve rat plasma samples with 1.56, 2.5, 3.12, 6.25, 12.5, 25.0, 37.5, 50.0, 75.0 and 100.0 mg L^−1 of DID. The limit of quantification (LOQ) of the method was 1.56 μg/ml, and the coefficient of variation (CV %) was <15% at all analyzed concentrations including LOQ.
The temperature program was as follows: injector temperature 280° C.; oven temperature, 135° C. 30 μl of internal standard solution (250 mg L-1 of 1-methyl-1cyclohexane carboxylic acid, MCCA, in MeOH) and 125 μl of 5N Hydrochloric acid (HCl) were added to 250 μl of plasma. The mixture was vortexed, and 2 ml of chloroform was added. The phases were separated, and the 1 ml of NaOH was added. 200 μl of HCl 5N and 2 ml of chloroform were added to the aqueous phase. The organic layer was evaporated and dry residue was redissolved in 50 μl of chloroform, and 30 μl was injected into the gas chromatograph. […] LOQ of the method was 25 mg L-1, and the coefficient of variation (CV %) was <15% at all analyzed concentrations including LOQ.
PK parameters were determined by non-compartmental analysis using the pharmacokinetic software package WinNonlin, version 4.0.1 (SCI Software, Lexington, Ky., U.S.A.; Yamaoka, et al., 1978 (YAMAOKA, K., […], T., & UNO, T. (1978). Statistical moments in pharmacokinetics. J Pharmacokinet. Biopharm., 6, 547-558); Gibaldi & Perrier, 1982 (GIBALDI, M., & PERRIER, D. (1982). Pharmacokinetics (2nd ed.). pp. 199-219 Marcel Dekker: New York); Rowland & Tozer, 1995 (ROWLAND, M., & TOZER, T. (1995). Pharmacological Response. In: Clinical Pharamcokeintics. pp. 340-365) Baltimore: Williams & Wilkins)). The terminal half-life (t½) was calculated as 0.693/β, where β is the linear terminal slope of the concentration (C)-versus-time curve. The area under the C-versus-time curve (AUC) was calculated by trapezoidal rule with extrapolation to infinity. The mean residence time (MRT) was calculated from the quotient AUMC/AUC, where AUMC is the area under the concentration-time product versus time curve from zero to infinity. Total (apparent) clearance (CL/F) was calculated from the quotient of […] with F being the absolute bioavailability following i.p. administration. The apparent volume of distribution (Vβ/F) was calculated from the quotient of CL and β. The peak plasma concentration (Cmax) and the time to reach Cmax (tmax) were determined empirically by visual inspection.

Data set [2] has as its system maximal electroshock (MES) test. The following applies: rat, in vivo, po; cited from earlier work.
For data set [3], the system named is neuropathic pain due to spinal cord injury. The following applies: double-blind placebo-controlled trial; cited from earlier work.
Where [4] appears, read: DID 40 mg kg^−1 i.p., plasma, SNL operated rats.

Each structure is given as a SMILES string.

As a reminder, the CL/F is clearance divided by bioavailability, as obtained after extravascular dosing. A word on the Cmax: it is the highest concentration seen after dosing. In general, MRT refers to the average time that molecules of a dose stay in the body. What is called Tmax is the time from dosing to the highest level. What is called half-life is the time needed for the level to fall by half in the phase considered. Read a low half-life as fast loss. For the compound `CC(C)C(C(N)=O)C(C)C` [DID, diisopropylacetamide], the “minimal plasma concentration associated with the antiallodynic effect” value in data set [1] (DID 40 mg kg^−1 i.p.) stood at 7 mg/L. In data set [1] (setting [4]), this compound gave a Vβ/F of 1.2 L/kg, a CL/F of 8.33 mL/min/kg, a Cmax of 28 µg/mL and an MRT of 2.4 h. Also, in data set [1] (setting [4]), the Tmax was 0.25 h and the half-life was 1.5 h. Moreover, the MES-ED50 in data set [2] was 51 mg/kg.
As to `CCCC(CCC)C(=O)O` [VPA, Valproic acid, reference compound], in data set [1] (VPA 300 mg kg^−1 i.p.), the “minimal plasma concentration associated with the antiallodynic effect” value is 125 mg/L. In data set [1] (plasma, 300 mg/kg), the CL/F is 3.33 mL/min/kg, the Cmax is 515 µg/mL, the MRT is 5.8 h and the Tmax is 0.5 h. Moreover, the half-life in data set [1] (plasma, 300 mg/kg) was 4.6 h. Also, the “pain relief versus placebo” value in data set [3] is “no difference between VPA and placebo in relieving pain”.
